Test system: tyrosine kinase activity in xenograft tumor lysates
Test: PAMCHIP96 (140-peptide array) profiling of xenograft tumor lysates in absence or presence of MTKI
Assay type: biochemical
Conditions: 5 μM
Method: 100 mg of frozen tumor or tissue blocks, or sections, are lysed in 1 ml of M-PER buffer (PIERCE) containing phosphatase and protease inhibitors (HALT, PIERCE). The suspension is mixed using a ULTRA-TURRAX blender (IKA werke), and centrifuged twice for 10 minutes at 12 000×g. Supernatant lysates are filtered through a 0.2 micrometer filter (Anotop 0.2 μm anopore filter; Whatmann). Lysates are flash frozen in liquid nitrogen and stored at −80C.
Just prior to the PAMCHIP experiment, total protein content is quantitated in the lysates and lysates are diluted to 1 mg/ml in a total volume of 200 μl, with M-PER phosphatase and protease inhibitors (HALT, PIERCE). 10 μg of total lysate (corresponding to 10 μl) will be used per well on the PAMCHIP96.
To all 200 μl lysates 10 units of benzonase (Novagen) is added and lysates are further incubated for 30 min on ice and next centrifuged for 10 minutes at 12 000×g. The supernatant is then 1:1 diluted with compound or DMSO diluted to the appropriate concentration in water, and lysates are further incubated exactly 60 min on ice. Meanwhile, a PAMCHIP96 tyrosine peptide chip (PAMGENE) is blocked with 2% BSA (filtered through a 0.2 μm anopore filter; Whatmann) using the standard setting of a PAMSTATION96 (PAMGENE).
The composition of the kinase buffer is as follows: 1×ABL buffer (NEB), 0.5 mg/ml BSA (from 10 mg/ml NEB stock), 100 μM ATP (dissolved and diluted in 1×ABL buffer), 5 μg/ml PY20-FITC (ExAlpha Biologicals, azide-free preparation). A twofold concentrated kinase buffer is prepared chilled on ice, DMSO or compound is added as appropriate, and the solution is added 1:1 to the (compound treated) ice cold lysates, and immediately applied to a tyrosine peptide PAMCHIP96. The assay is run on a PAMSTATION96 according to standard procedures: after loading of the plate, solution is pumped once onto the wells, a first exposure is read (150 mSec) and then a kinetic reading program (reading every 5 min for 150 mSec) is run for 60 min. Lysates are run in 6 technical replicates for each condition; replicates are always applied horizontally next to each other to avoid vertical strip effects of the chip.
The data (spot images) are further quantified and linked to the peptide identities using EVOLVE PAMGRID software (PAMGENE). The quantified data are then fit to a curve using CurveFitHT software (PAMGENE) using the Vinip2 curve fitting algorithm, applied on the first 30 min of the assay; the initial velocity is derived at the first kinetic time point read. All subsequent data analyses were done on initial velocities (Vini) using the software packages Omniviz and R (Ihaka, R. and Gentlemen, R. (1996) R: a language for data analysis and graphics. J. Comput. Graph. Stat., 5, 299-314).
After replacing the Vini's lower than 0.1 by 0.1, all Vini's were log 2-transformed to approach normality. […] This test was done for each peptide separately using a mixed model (Littell, R. C., Milliken, G. A., Stroup, W. W., Wolfinger, R. D. 1996. SAS system for mixed models. Cary, N. C.: SAS Institute Inc.) allowing the incorporation of both technical variation (i.e., the variation across replicates) and biological variation (i.e., the variation among the various responding and non-responding cell lines or tumors). Variation between cell lines or tumors in Vini and in treatment effect on Vini was modeled respectively by random intercepts and random compound effects per cell line or tumor, nested in response status. The difference in compound-induced reduction in Vini between responding and non-responding cell lines or tumors was tested through the interaction between compound treatment and response status, both modeled as fixed effects.

Compound: COc1cc2ncnc3c2cc1OCCCCCN(C)Cc1ccc(Br)cc1N3 [MTKI, 4,6-ethanediylidenepyrimido[4,5-b][6,1,12]benzoxadiazacyclopentadecine, 17-bromo-8,9,10,11,12,13,14,19-octahydro-20-methoxy-13-methyl-]
- ratio of initial velocity of peptide phosphorylation (H322 xenograft tumor lysate, CDK7_157_169_S164): 0.77
- ratio of initial velocity of peptide phosphorylation (H322 xenograft tumor lysate, EPHB1_921_933_Y928): 0.75
- ratio of initial velocity of peptide phosphorylation (H322 xenograft tumor lysate, FAK1_569_581_Y576/Y577): 0.82
- ratio of initial velocity of peptide phosphorylation (H322 xenograft tumor lysate, GSK3B_209_221_Y216): 0.77
- ratio of initial velocity of peptide phosphorylation (H322 xenograft tumor lysate, K2C6E_53_65_S59): 0.80
- ratio of initial velocity of peptide phosphorylation (H322 xenograft tumor lysate, MBP_259_271_Y261/Y268/S266): 0.65
- ratio of initial velocity of peptide phosphorylation (H322 xenograft tumor lysate, MK10_216_228_T221/Y223): 0.68
- ratio of initial velocity of peptide phosphorylation (H322 xenograft tumor lysate, NCF1_313_325_S315/S320): 0.78
- ratio of initial velocity of peptide phosphorylation (H322 xenograft tumor lysate, NTRK2_699_711_Y702/Y706/Y707): 0.76
- ratio of initial velocity of peptide phosphorylation (H322 xenograft tumor lysate, P2AB_297_309_T304/Y307): 0.77
- ratio of initial velocity of peptide phosphorylation (H322 xenograft tumor lysate, PGFRB_572_584_Y579/Y581): 0.67
- ratio of initial velocity of peptide phosphorylation (H322 xenograft tumor lysate, RAF1_331_343_S337/S338/Y339/Y340): 0.79
- ratio of initial velocity of peptide phosphorylation (H322 xenograft tumor lysate, RB_804_816_S807/S811): 0.75
- ratio of initial velocity of peptide phosphorylation (H322 xenograft tumor lysate, SYN1_2_14_S9): 0.78
- ratio of initial velocity of peptide phosphorylation (H322 xenograft tumor lysate, TYRO3_679_691_Y686): 0.80
- ratio of initial velocity of peptide phosphorylation (H322 xenograft tumor lysate, VEGFR2_944_956_Y951): 0.75
- ratio of initial velocity of peptide phosphorylation (H322 xenograft tumor lysate, VINC_815_827_Y821): 0.76
- ratio of initial velocity of peptide phosphorylation (H3255 xenograft tumor lysate, CDK7_157_169_S164): 0.45
- ratio of initial velocity of peptide phosphorylation (H3255 xenograft tumor lysate, EPHB1_921_933_Y928): 0.44
- ratio of initial velocity of peptide phosphorylation (H3255 xenograft tumor lysate, FAK1_569_581_Y576/Y577): 0.48
- ratio of initial velocity of peptide phosphorylation (H3255 xenograft tumor lysate, GSK3B_209_221_Y216): 0.57
- ratio of initial velocity of peptide phosphorylation (H3255 xenograft tumor lysate, K2C6E_53_65_S59): 0.56
- ratio of initial velocity of peptide phosphorylation (H3255 xenograft tumor lysate, MBP_259_271_Y261/Y268/S266): 0.47
- ratio of initial velocity of peptide phosphorylation (H3255 xenograft tumor lysate, MK10_216_228_T221/Y223): 0.31
- ratio of initial velocity of peptide phosphorylation (H3255 xenograft tumor lysate, NCF1_313_325_S315/S320): 0.73
- ratio of initial velocity of peptide phosphorylation (H3255 xenograft tumor lysate, NTRK2_699_711_Y702/Y706/Y707): 0.48
- ratio of initial velocity of peptide phosphorylation (H3255 xenograft tumor lysate, P2AB_297_309_T304/Y307): 0.66
- ratio of initial velocity of peptide phosphorylation (H3255 xenograft tumor lysate, PGFRB_572_584_Y579/Y581): 0.66
- ratio of initial velocity of peptide phosphorylation (H3255 xenograft tumor lysate, RAF1_331_343_S337/S338/Y339/Y340): 0.53
- ratio of initial velocity of peptide phosphorylation (H3255 xenograft tumor lysate, RB_804_816_S807/S811): 0.52
- ratio of initial velocity of peptide phosphorylation (H3255 xenograft tumor lysate, SYN1_2_14_S9): 0.50
- ratio of initial velocity of peptide phosphorylation (H3255 xenograft tumor lysate, TYRO3_679_691_Y686): 0.51
- ratio of initial velocity of peptide phosphorylation (H3255 xenograft tumor lysate, VEGFR2_944_956_Y951): 0.52
- ratio of initial velocity of peptide phosphorylation (H3255 xenograft tumor lysate, VINC_815_827_Y821): 0.40
- ratio of initial velocity of peptide phosphorylation (SUM149 xenograft tumor lysate, EPHB1_921_933_Y928): 0.85
- ratio of initial velocity of peptide phosphorylation (SUM149 xenograft tumor lysate, FAK1_569_581_Y576/Y577): 0.94
- ratio of initial velocity of peptide phosphorylation (SUM149 xenograft tumor lysate, GSK3B_209_221_Y216): 0.91
- ratio of initial velocity of peptide phosphorylation (SUM149 xenograft tumor lysate, K2C6E_53_65_S59): 0.86
- ratio of initial velocity of peptide phosphorylation (SUM149 xenograft tumor lysate, MBP_259_271_Y261/Y268/S266): 1.04
- ratio of initial velocity of peptide phosphorylation (SUM149 xenograft tumor lysate, MK10_216_228_T221/Y223): 0.75
- ratio of initial velocity of peptide phosphorylation (SUM149 xenograft tumor lysate, NCF1_313_325_S315/S320): 0.94
- ratio of initial velocity of peptide phosphorylation (SUM149 xenograft tumor lysate, NTRK2_699_711_Y702/Y706/Y707): 0.85
- ratio of initial velocity of peptide phosphorylation (SUM149 xenograft tumor lysate, P2AB_297_309_T304/Y307): 0.87
- ratio of initial velocity of peptide phosphorylation (SUM149 xenograft tumor lysate, PGFRB_572_584_Y579/Y581): 0.69
- ratio of initial velocity of peptide phosphorylation (SUM149 xenograft tumor lysate, RAF1_331_343_S337/S338/Y339/Y340): 0.99
- ratio of initial velocity of peptide phosphorylation (SUM149 xenograft tumor lysate, RB_804_816_S807/S811): 0.83
- ratio of initial velocity of peptide phosphorylation (SUM149 xenograft tumor lysate, SYN1_2_14_S9): 1.01
- ratio of initial velocity of peptide phosphorylation (SUM149 xenograft tumor lysate, TYRO3_679_691_Y686): 1.03
- ratio of initial velocity of peptide phosphorylation (SUM149 xenograft tumor lysate, VEGFR2_944_956_Y951): 0.86
- ratio of initial velocity of peptide phosphorylation (SUM149 xenograft tumor lysate, VINC_815_827_Y821): 0.75
